IC50 and EC50 data for 19 compounds are collected here from patent US8759334B2, “Compounds useful for the treatment of metabolic and inflammatory diseases” (Galapagos NV, priority 2011, dated 2014).

SMILES strings stand for the structures.

Common to all, as to format: cell-based
Test [1] has as its target T1, GPR43 (Homo sapiens, UniProt O15552).
T1 construct: expressed in transfected cells
T1 sequence (O15552 1-330): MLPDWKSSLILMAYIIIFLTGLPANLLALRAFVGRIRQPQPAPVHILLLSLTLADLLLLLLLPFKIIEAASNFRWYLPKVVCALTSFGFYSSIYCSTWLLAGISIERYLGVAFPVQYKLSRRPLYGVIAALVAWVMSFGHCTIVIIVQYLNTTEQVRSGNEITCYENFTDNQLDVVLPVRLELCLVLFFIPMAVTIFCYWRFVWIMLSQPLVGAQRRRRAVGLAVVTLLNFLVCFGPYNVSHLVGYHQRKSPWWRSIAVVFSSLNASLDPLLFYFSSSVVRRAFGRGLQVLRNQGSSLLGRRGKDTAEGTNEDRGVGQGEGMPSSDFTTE
The test can be described thus: Calcium mobilization assay with probenecid. The settings on record: GPR43 stably expressing cells; triggered with sodium acetate at EC80; 2.5 mM probenecid; read-out: GPR43 assay with probenicid IC50. A digest of the protocol: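 Cells stably expressing GPR43 plated overnight at 37 °C, then loaded 2 h with Calcium 4 dye plus 2.5 mM probenecid. […]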
(In general: A change in cytosolic calcium serves as a functional read-out for many receptors and channels.)

Test [2] concerns the target T1, GPR43. The test can be described thus: Calcium mobilization assay without probenecid. As to conditions: GPR43 stably expressing cells, triggered with sodium acetate at EC80, read-out: GPR43 assay without probenicid IC50. A digest of the protocol: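 In GPR43-expressing cells loaded with a Calcium 4 dye, antagonism was tested by a 15 min compound preincubation at 37 °C, then a sodium acetate challenge at EC80, with Ca-flux read on injection. For agonism, Ca-flux was recorded directly on compound injection.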

For test [3], the system named is human neutrophils. The test can be described thus: Neutrophil migration assay. As to conditions: neutrophils from human buffy coat, migration towards sodium acetate, read-out: human neutrophil migration inhibition EC50. The protocol:
G Protein-Coupled Receptor 43 (GPR43) was described as an essential player in the process of neutrophil recruitment during intestinal inflammation.
The effect of agonists or antagonists for GPR43 can therefore be assayed in a neutrophil migration test. In the neutrophil migration assay, neutrophils, isolated from buffy coats from human volunteers, are treated with a compound for 30 minutes. Subsequently, the neutrophils are transferred to the upper wells of a Corning HTS transwell 96 permeable support system, of which the lower wells are filled with a sodium acetate solution.
The ACD buffer consists of 140 mM citric acid, 200 mM sodium citrate and 220 mM dextrose. The 6% dextran/0.9% NaCl solution consists of 15 g dextran T2000 and 2.25 g NaCl dissolved in 250 mL H2O.
A human buffy coat is diluted with an equal volume of ice cold DPBS. 20 mL of the diluted buffy coat is gently mixed with 4 mL of ACD buffer. Then, 12 mL of the 6% dextran/0.9% NaCl solution is added to the mixture and the samples are inverted gently up to 20 times. The total volume is transferred to a new recipient and incubated at room temperature for 1 h for complete separation of the two phases to occur. The yellowish supernatant is then transferred to a clean centrifugation tube and centrifuged for 12 minutes at 1300 rpm and 4° C. After centrifugation, the supernatant is discarded and the remaining cell pellet is rapidly resuspended in 12 mL of ice-cold H2O for red blood cell lysis to occur. After 20 seconds, 4 mL of ice-cold 0.6 M KCl is added. Samples are mixed carefully and centrifuged for 6 minutes at 1300 rpm, 4° C. The supernatant is discarded and the red blood cell lysis procedure is repeated one more time. […] After centrifugation for 12 min at 1300 rpm, 4° C., the supernatant is removed and the cell pellet, containing the neutrophils, is resuspended in 25 mL chemotaxis buffer.
A cell suspension of 8.9×10^6 cells per milliliter is prepared. 20 μL of compound solution in chemotaxis buffer is added to 180 μl cell suspension. The mixture is incubated at 37° C. for 30 minutes with Intermediate resuspension of the cells after 15 minutes. […] The receiver well of the transwell system is then filled with 200 μL chemotaxis buffer containing compound and chemotactic agent (sodium acetate). After incubation at 37° C. in 5% CO2 for 1 h, the upper plate of the transwell system is removed and the cell suspension in the receiver plate is transferred to a 96-well V-bottom plate. 50 μL of DPBS is added to the receiver plate to prevent remaining cells from drying out. The V-bottom plate is centrifuged for 6 minutes at 1500 rpm. The supernatant is removed and the cells are resuspended in 50 μL DPBS. The cells are then transferred back to the receiver plate of the transwell system. […] The plate is incubated for 10 minutes in the dark, while shaking. 170 μL of cell lysate is then transferred to a white 96-well plate and luminescence is measured. The detected luminescent signal is considered as linearly related to the number of migrated cells.

Usually IC50 stands for the midpoint of a concentration-inhibition curve.

As for `Cc1cc(C)cc(CC(=O)N2CCC2(C)C(=O)N(CC(=O)N2CCOCC2)Cc2ccc(Cl)cc2)c1` (centres unmarked) [Compound 83, 1-[2-(3,5-Dimethyl-phenyl)-acetyl]-2-methyl-azetidine-2-carboxylic acid (4-chloro-benzyl)-(2-morpholin-4-yl-2-oxo-ethyl)-amide], the concentration for half-maximal inhibition (IC50) in test [1] and in test [2] was more than 1000 nM each time.
On to `CC1(C(=O)N(CC#N)Cc2ccc(Cl)cc2)CCN1C(=O)Cc1csc2ccccc12` (centres unmarked) [Compound 84, 1-(2-Benzo[b]thiophen-3-yl-acetyl)-2-methyl-azetidine-2-carboxylic acid (4-chloro-benzyl)-cyanomethyl-amide], for which the 50% inhibitory concentration (IC50) in test [1] and in test [2] was 101 to 500 nM throughout.
With `O=C(O)CN(Cc1ccc(Cl)cc1)C(=O)C1(CO)CCN1C(=O)Cc1csc2ccccc12` (centres unmarked) [Compound 85, [[1-(2-Benzo[b]thiophen-3-yl-acetyl)-2-hydroxymethyl-azetidine-2-carbonyl]-(4-chloro-benzyl)-amino]-acetic acid], the IC50 was 101 to 500 nM in test [1] and more than 1000 nM in test [2].
Regarding `COC(=O)CCN(Cc1ccc(Cl)cc1)C(=O)C1(C)CCN1C(=O)Cc1csc2ccccc12` (centres unmarked) [Compound 86, 3-[[1-(2-Benzo[b]thiophen-3-yl-acetyl)-2-methyl-azetidine-2-carbonyl]-(4-chloro-benzyl)-amino]-propionic acid methyl ester], the concentration for half-maximal inhibition (IC50) is 0.01 to 100 nM in test [1] and 101 to 500 nM in test [2].
Regarding `CCOC(=O)CCCN(Cc1ccc(Cl)cc1)C(=O)C1(C)CCN1C(=O)Cc1csc2ccccc12` (centres unmarked) [Compound 87, 4-[[1-(2-Benzo[b]thiophen-3-yl-acetyl)-2-methyl-azetidine-2-carbonyl]-(4-chloro-benzyl)-amino]-butyric acid ethyl ester], the half-inhibitory concentration (IC50) in test [1] and in test [2] was 501 to 1000 nM each time.
For `CC1(C(=O)N(CCC(=O)O)Cc2ccc(Cl)cc2)CCN1C(=O)Cc1csc2ccccc12` (centres unmarked) [Compound 88, 3-[[1-(2-Benzo[b]thiophen-3-yl-acetyl)-2-methyl-azetidine-2-carbonyl]-(4-chloro-benzyl)-amino]-propionic acid], the IC50 in test [1] and in test [2] was 101 to 500 nM throughout.
Regarding `CN(Cc1ccc(Cl)cc1)C(=O)C1(C)CCN1C(=O)Cc1cn(C)c2ccccc12` (centres unmarked) [Compound 91, 2-Methyl-1-[2-(1-methyl-1H-indol-3-yl)-acetyl]-azetidine-2-carboxylic acid (4-chloro-benzyl)-methyl-amide], the IC50 in test [1] and in test [2] was more than 1000 nM each time.
Regarding `Cc1cc(C)cc(CC(=O)N2CCC2(C)C(=O)N(CC(=O)NS(=O)(=O)C(F)(F)F)Cc2ccc(Cl)cc2)c1` (centres unmarked) [Compound 94, 1-[2-(3,5-Dimethyl-phenyl)-acetyl]-2-methyl-azetidine-2-carboxylic acid (4-chloro-benzyl)-(2-oxo-2-trifluoromethanesulfonylamino-ethyl)-amide], the IC50 in test [1] and in test [2] was more than 1000 nM each time.
Take `Cc1cc(C)cc(CC(=O)N2CCC2(C)C(=O)N(CC(=O)NS(C)(=O)=O)Cc2ccc(Cl)cc2)c1` (centres unmarked) [Compound 95, 1-[2-(3,5-Dimethyl-phenyl)-acetyl]-2-methyl-azetidine-2-carboxylic acid (4-chloro-benzyl)-(2-methanesulfonylamino-2-oxo-ethyl)-amide]: the IC50 in test [1] was more than 1000 nM; in test [2], 501 to 1000 nM.
For `Cc1cc(C)cc(CC(=O)N2CCC2(C)C(=O)N(CCCC#N)Cc2ccc(Cl)cc2)c1` (centres unmarked) [Compound 97, 1-[2-(3,5-Dimethyl-phenyl)-acetyl]-2-methyl-azetidine-2-carboxylic acid (4-chloro-benzyl)-(3-cyano-propyl)-amide], the results for the IC50 in test [1] and in test [2] were 501 to 1000 nM and 101 to 500 nM, respectively.
On to `CN(Cc1ccc(Cl)cc1)C(=O)C1(C)CCN1C(=O)c1csc2ccccc12` (centres unmarked) [Compound 98, 1-(Benzo[b]thiophene-3-carbonyl)-2-methyl-azetidine-2-carboxylic acid (4-chloro-benzyl)-methyl-amide], for which the half-inhibitory concentration (IC50) in test [1] and in test [2] was 101 to 500 nM in each case.
For `CC1(C(=O)N(CCCc2nnn[nH]2)Cc2ccc(Cl)cc2)CCN1C(=O)Cc1csc2ccccc12` (centres unmarked) [Compound 100, 1-(2-Benzo[b]thiophen-3-yl-acetyl)-2-methyl-azetidine-2-carboxylic acid (4-chloro-benzyl)-[3-(1H-tetrazol-5-yl)-propyl]-amide], the IC50 in test [1] and in test [2] was 0.01 to 100 nM in each case.
Take `CC(=O)NCCN(Cc1ccc(Cl)cc1)C(=O)C1(C)CCN1C(=O)Cc1cc(C)cc(C)c1` (centres unmarked) [Compound 101, 1-[2-(3,5-Dimethyl-phenyl)-acetyl]-2-methyl-azetidine-2-carboxylic acid (2-acetylamino-ethyl)-(4-chloro-benzyl)-amide]: the IC50 in test [1] and in test [2] was 101 to 500 nM each time.
As for `Cc1cc(C)cc(CC(=O)N2CCC2(C)C(=O)N(CCNS(C)(=O)=O)Cc2ccc(Cl)cc2)c1` (centres unmarked) [Compound 102, 1-[2-(3,5-Dimethyl-phenyl)-acetyl]-2-methyl-azetidine-2-carboxylic acid (4-chloro-benzyl)-(2-methanesulfonylamino-ethyl)-amide], the figures for the IC50 in test [1] and in test [2] were 101 to 500 nM and 501 to 1000 nM, respectively.
In the case of `CC1(C(=O)N(CCCC(=O)O)Cc2ccc(Cl)cc2)CCN1C(=O)Cc1coc2ccccc12` (centres unmarked) [Compound 103, 4-[[1-(2-Benzofuran-3-yl-acetyl)-2-methyl-azetidine-2-carbonyl]-(4-chloro-benzyl)-amino]-butyric acid], the IC50 in test [1] lay within 101 to 500 nM. In addition, in test [3], the EC50 was in the range of 501 to 1000 nM.
Consider `Cc1cc(C)cc(CC(=O)N2CCC2(C)C(=O)N(CC(=O)O)Cc2ccc3cn[nH]c3c2)c1` (centres unmarked) [Compound 110, [{1-[2-(3,5-Dimethyl-phenyl)-acetyl]-2-methyl-azetidine-2-carbonyl}-(1H-indazol-6-ylmethyl)-amino]-acetic acid], for which the IC50 in test [1] lay within 101 to 500 nM. Further, the EC50 in test [3] lay in the range of 101 to 500 nM.
Regarding `Cc1cc(C)cc(CC(=O)N2CCC2(C)C(=O)N(CCCC(=O)O)Cc2ccc3cc[nH]c3c2)c1` (centres unmarked) [Compound 113, 4-[{1-[2-(3,5-Dimethyl-phenyl)-acetyl]-2-methyl-azetidine-2-carbonyl}-(1H-indol-6-ylmethyl)-amino]-butyric acid], the IC50 in test [1] lay in the range of 0.01 to 100 nM. For the same compound, the EC50 in test [3] was in the range of 0.01 to 100 nM.
As for `Cc1cc(C)cc(CC(=O)N2CCC2(C)C(=O)N(CCCC(=O)N2CCOCC2)Cc2ccc(Cl)cc2)c1` (centres unmarked) [Compound 122, 1-[2-(3,5-Dimethyl-phenyl)-acetyl]-2-methyl-azetidine-2-carboxylic acid (4-chloro-benzyl)-(4-morpholin-4-yl-4-oxo-butyl)-amide], in test [1], the concentration for half-maximal inhibition (IC50) lay within 101 to 500 nM. For the same compound, the EC50 in test [3] was 101 to 500 nM.
Regarding `Cc1cc(C)cc(CC(=O)N2CCC2(C)C(=O)N(CCCC(=O)O)Cc2ccc3cn[nH]c3c2)c1` (centres unmarked) [Compound 123, 4-[{1-[2-(3,5-Dimethyl-phenyl)-acetyl]-2-methyl-azetidine-2-carbonyl}-(1H-indazol-6-ylmethyl)-amino]-butyric acid], the 50% inhibitory concentration (IC50) in test [1] was 101 to 500 nM. In test [3], the EC50 lay within 0.01 to 100 nM.
